Results published in patent EP4745117A1, “NOVEL INDENONE DERIVATIVE AND USE THEREOF” (Amyloid Solution Inc., priority 2023, dated 2025).
Where two headings read alike, the source gives them in different places.

What was measured:
[1] = molecular target: Tau-RD3 (Tau repeat domain 3) (Homo sapiens, UniProt P10636); assay: Tau disaggregation test by Thioflavin-T analysis; format: biochemical; conditions: for EC50: Tau-RD3 35 µM aggregated 24 hours, then compound 0 - 500 µM for 48 hours at 37 °C, concentration disaggregating 50 % of aggregates vs control, read-out: EC50 (µM) Tau; for disaggregation effect for tau protein aggregates: statement in words summarising the Thioflavin-T results
Protocol: (§1) Each compound was dissolved in DMSO to a concentration of 10 mM. Then, the compounds were diluted with 6 % DMSO (in DW) for use.
(§2) Amyloid-beta and tau solutions were prepared by dissolving Aβ1-42 or Tau-RD3 (Tau repeat domain 3) monomers in DMSO to a concentration of 10 mM. Then, the solutions were diluted to 100 µM with DW and stored on ice.
(§3) Meanwhile, Thioflavin-T was dissolved in 50 mM glycine buffer (pH 8.5) to a concentration of 5 mM. Then, the solution was diluted to 5 µM with 50 mM glycine buffer (pH 8.5) and stored in the dark, protected from light.
(§4) The amyloid-beta and tau solutions prepared in Example 1.1 were each placed in 1.5 mL microcentrifuge tubes to a concentration of 50 µM or 35 µM, respectively, and then reacted at 37 °C for 24 hours.
(§5) To each 1.5 mL microcentrifuge tube in which the amyloid-beta and tau aggregation was complete, the compounds were added at concentrations ranging from 500 µM down to 0 µM by serial dilution, and then further reacted at 37 °C for 48 hours.
(§6) 25 µL of each completed reaction solution was added to each well of a 96-well fluorescence analysis plate, and 75 µL of the Thioflavin-T solution was added to each well. After reacting for 5 minutes at room temperature in the dark, the fluorescence value was measured at 450 nm (excitation) and 485 nm (emission) using a multi-mode microplate reader.
(§7) The fluorescence value of the group (control group) treated with only amyloid-beta or tau and aggregated for 72 hours was designated as 100 %. The fluorescence values measured after treating the amyloid-beta and tau aggregates (formed by reacting for 24 hours) with each compound by concentration and reacting for an additional 48 hours were converted to relative values.

Aβ1-42 = molecular target: T1, Aβ1-42 (Homo sapiens, UniProt P05067); assay: Amyloid-beta disaggregation test by Thioflavin-T analysis; format: biochemical; conditions: for disaggregation effect for amyloid-beta protein aggregates: statement in words summarising the Thioflavin-T results
T1 construct: dissolving Aβ1-42 or Tau-RD3 (Tau repeat domain 3) monomers in DMSO
Protocol: as §1, §2, §3, §4, §5, §6, §7

[2] = Aβ1-42 50 µM aggregated 24 hours, then compound 0 - 500 µM for 48 hours at 37 °C, concentration disaggregating 50 % of aggregates vs control, read-out: EC50 (µM) Aβ

T1 sequence (P05067 672-713 limits assumed): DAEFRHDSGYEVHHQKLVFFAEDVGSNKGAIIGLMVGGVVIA
Chain of Tau-RD3 (Tau repeat domain 3) (P10636 623-653 limits assumed): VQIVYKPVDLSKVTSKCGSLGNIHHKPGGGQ

SMILES	EC50 [1]	EC50 (Aβ1-42)	EC50 (Aβ1-42; [2])	disaggregation effect for tau protein aggregates [1]	disaggregation effect for amyloid-beta protein aggregates (Aβ1-42)
Cc1ncsc1C1=C(c2ccn(C3CCN(C)CC3)n2)C(=O)c2cc(OCCCc3ccccc3)ccc21 [Compound 29, 2-(1-(1-methylpiperidin-4-yl)-1H-pyrazol-3-yl)-3-(4-methylthiazol-5-yl)-6-(3-phenylpropoxy)-1H-inden-1-one]	> 250 µM	> 250 µM			
CN1CCN(c2cccc(C3=C(c4ccccc4)c4ccccc4C3=O)c2)CC1 [Compound 91, 2-(3-(4-methylpiperazin-1-yl)phenyl)-3-phenyl-1H-inden-1-one]	> 250 µM		< 20 µM		
Cc1ncsc1C1=C(c2cccnc2)C(=O)c2cc(NCC3CCOCC3)ccc21 [Compound 52, 3-(4-methylthiazol-5-yl)-2-(pyridin-3-yl)-6-(((tetrahydro-2H-pyran-4-yl)methyl)amino)-1H-inden-1-one]	> 250 µM		> 250 µM		
Cc1ncsc1C1=C(c2ccc(CN3CCOCC3)cc2)C(=O)c2ccccc21 [Compound 87, 3-(4-methylthiazol-5-yl)-2-(4-(morpholinomethyl)phenyl)-1H-inden-1-one]	20 to 100 µM		< 20 µM		
Cc1ncsc1C1=C(c2ccn(C)n2)C(=O)c2cc(OCCCc3ccccc3)ccc21 [Compound 26, 2-(1-methyl-1H-pyrazol-3-yl)-3-(4-methylthiazol-5-yl)-6-(3-phenylpropoxy)-1H-inden-1-one]	> 250 µM		< 20 µM		
Cc1ncsc1C1=C(c2cccnc2)C(=O)c2cc(NCCCc3ccccc3)ccc21 [Compound 20, 3-(4-methylthiazol-5-yl)-6-((3-phenylpropyl)amino)-2-(pyridin-3-yl)-1H-inden-1-one]	< 20 µM		< 20 µM	remarkably excellent disaggregation effect	remarkably excellent disaggregation effect
COc1cc(OCCCc2ccccc2)cc2c1C(c1scnc1C)=C(c1cccnc1)C2=O [Compound 47, 4-methoxy-3-(4-methylthiazol-5-yl)-6-(3-phenylpropoxy)-2-(pyridin-3-yl)-1H-inden-1-one]	< 20 µM		< 20 µM	remarkably excellent disaggregation effect	remarkably excellent disaggregation effect
Cn1cc(C2=C(c3cccnc3)C(=O)c3cc(OCCCc4ccccc4)ccc32)cn1 [Compound 42, 3-(1-methyl-1H-pyrazol-4-yl)-6-(3-phenylpropoxy)-2-(pyridin-3-yl)-1H-inden-1-one]	> 250 µM		> 250 µM		
O=C1C(c2ccccc2)=C(c2ccccc2)c2ccc(OCCCc3ccccc3)cc21 [Compound 78, 2,3-diphenyl-6-(3-phenylpropoxy)-1H-inden-1-one]	> 250 µM		100 to 250 µM		
CN1CCN(c2cccc(C3=C(c4ccccc4)C(=O)c4ccccc43)c2)CC1 [Compound 95, 3-(3-(4-methylpiperazin-1-yl)phenyl)-2-phenyl-1H-inden-1-one]	> 250 µM		20 to 100 µM		
Cc1ccncc1C1=C(c2scnc2C)c2ccc(OCCCc3ccccc3)cc2C1=O [Compound 21, 2-(4-methylpyridin-3-yl)-3-(4-methylthiazol-5-yl)-6-(3-phenylpropoxy)-1H-inden-1-one]	< 20 µM		< 20 µM	remarkably excellent disaggregation effect	remarkably excellent disaggregation effect
O=C1C(c2cccc(N3CCOCC3)c2)=C(c2ccccc2)c2ccc(Cl)cc21 [Compound 73-7, 6-chloro-2-(3-morpholinophenyl)-3-phenyl-1H-inden-1-one]	> 250 µM		< 20 µM		
Cc1ncsc1C1=C(c2cccnc2)C(=O)c2cc(N(C)CCCc3ccccc3)ccc21 [Compound 38, 6-(methyl(3-phenylpropyl)amino)-3-(4-methylthiazol-5-yl)-2-(pyridin-3-yl)-1H-inden-1-one]	> 250 µM		< 20 µM		
CCCOc1ccc2c(c1)C(=O)C(c1ccccc1)=C2c1ccccc1 [Compound 3, 2,3-diphenyl-6-propoxy-1H-inden-1-one]	> 250 µM		< 20 µM		
COc1ccc2c(c1)C(=O)C(c1cnccc1C)=C2c1scnc1C [Compound 22, 6-methoxy-2-(4-methylpyridin-3-yl)-3-(4-methylthiazol-5-yl)-1H-inden-1-one]	20 to 100 µM		> 250 µM		
Cc1cccc(C)c1C1=C(c2ccccc2)C(=O)c2cc(Cl)ccc21 [Compound 72-7, 6-chloro-3-(2,6-dimethylphenyl)-2-phenyl-1H-inden-1-one]	> 250 µM		< 20 µM		

SMILES	EC50 [1]	EC50 (Aβ1-42)	EC50 (Aβ1-42; [2])	disaggregation effect for tau protein aggregates [1]	disaggregation effect for amyloid-beta protein aggregates (Aβ1-42)
O=C1C(c2ccccc2)=C(Br)c2ccccc21 [Compound 5-4, 3-bromo-2-phenyl-1H-inden-1-one]	< 20 µM		< 20 µM	remarkably excellent disaggregation effect	remarkably excellent disaggregation effect
Cc1ncsc1C1=C(c2scnc2C)c2ccc(N3CCN(CCO)CC3)cc2C1=O [Compound 81, 6-(4-(2-hydroxyethyl)piperazin-1-yl)-2,3-bis(4-methylthiazol-5-yl)-1H-inden-1-one]	20 to 100 µM		20 to 100 µM		
Cc1ncsc1C1=C(c2cccnc2)C(=O)c2cc(OCCCc3ccccc3)cc(O)c21 [Compound 48, 4-hydroxy-3-(4-methylthiazol-5-yl)-6-(3-phenylpropoxy)-2-(pyridin-3-yl)-1H-inden-1-one]	> 250 µM		< 20 µM		
Cc1ncsc1C1=C(c2cccnc2)C(=O)c2cc(NCCOc3ccccc3)ccc21 [Compound 55, 3-(4-methylthiazol-5-yl)-6-((2-phenoxyethyl)amino)-2-(pyridin-3-yl)-1H-inden-1-one]	> 250 µM		< 20 µM		
Cc1ncsc1C1=C(c2ccncc2)C(=O)c2cc(OCCCc3ccccc3)ccc21 [Compound 39, 3-(4-methylthiazol-5-yl)-6-(3-phenylpropoxy)-2-(pyridin-4-yl)-1H-inden-1-one]	> 250 µM		< 20 µM		
Cc1ncsc1C1=C(c2ccc(CN3CCN(C)CC3)cc2)c2ccccc2C1=O [Compound 92, 3-(4-((4-methylpiperazin-1-yl)methyl)phenyl)-2-(4-methylthiazol-5-yl)-1H-inden-1-one]	20 to 100 µM		20 to 100 µM		
Cc1ncsc1C1=C(c2cccnc2)C(=O)c2cc(N(C)C)ccc21 [Compound 62, 6-(dimethylamino)-3-(4-methylthiazol-5-yl)-2-(pyridin-3-yl)-1H-inden-1-one]	> 250 µM		> 250 µM		
O=C1C(c2cccc(N3CCOCC3)c2)=C(c2ccccc2)c2ccccc21 [Compound 18, 2-(3-morpholinophenyl)-3-phenyl-1H-inden-1-one]	> 250 µM		< 20 µM		
Cc1ncsc1C1=C(c2cccnc2)C(=O)c2cc(N)ccc21 [Compound 59, 6-amino-3-(4-methylthiazol-5-yl)-2-(pyridin-3-yl)-1H-inden-1-one]	20 to 100 µM		20 to 100 µM		
Cc1ccccc1C1=C(c2ccccc2)c2ccccc2C1=O [Compound 6, 3-phenyl-2-(o-tolyl)-1H-inden-1-one]	> 250 µM		20 to 100 µM		
Cc1ncsc1C1=C(c2ccncc2)C(=O)c2cc(O)ccc21 [Compound 39-3, 6-hydroxy-3-(4-methylthiazol-5-yl)-2-(pyridin-4-yl)-1H-inden-1-one]	> 250 µM		> 250 µM		
O=C1C(c2ccccc2)=C(c2cccnc2)c2ccccc21 [Compound 9, 2-phenyl-3-(pyridin-3-yl)-1H-inden-1-one]	20 to 100 µM		20 to 100 µM		
CCOC(=O)c1ccccc1C1=C(c2ccccc2C)c2ccccc2C1=O [Compound 99-7, ethyl 2-(1-oxo-3-(o-tolyl)-1H-inden-2-yl)benzoate]	> 250 µM		100 to 250 µM		
Cc1ncsc1C1=C(c2ccc(N3CCN(C)CC3)cc2)C(=O)c2ccccc21 [Compound 85, 2-(4-(4-methylpiperazin-1-yl)phenyl)-3-(4-methylthiazol-5-yl)-1H-inden-1-one]	> 250 µM		> 250 µM		
COc1ccccc1C1=C(c2cccnc2)C(=O)c2cc(O)ccc21 [Compound 44-8, 6-hydroxy-3-(2-methoxyphenyl)-2-(pyridin-3-yl)-1H-inden-1-one]	20 to 100 µM		100 to 250 µM		
Cc1ncsc1C1=C(c2cccnc2)C(=O)c2cc(NC(=O)CCc3ccccc3)ccc21 [Compound 60, N-(3-(4-methylthiazol-5-yl)-1-oxo-2-(pyridin-3-yl)-1H-inden-6-yl)-3-phenylpropanamide]	< 20 µM		20 to 100 µM		
